For 95 compounds, IC50 results are on record in PubChem BioAssay AID712 (Emory University Molecular Libraries Screening Center, 2007).

Activity calls are given as the source filed them. How the calls were made is not given here.

In the test the target is Heat shock protein HSP 90-alpha (Homo sapiens) (UniProt P07900). As to the kind of experiment: tumor Hsp90 inhibitor potency, dose response (AID 712). Conditions: Hsp90 inhibition assay.

As a reminder, the IC50 is the concentration at which inhibition is half-maximal. `COc1ccc2c(c1-c1cc(NS(=O)(=O)c3cccc(N)c3)ccc1N)OCO2`: the IC50 was > 50 µM (inactive).
The value for `Nc1ccc(NS(=O)(=O)c2cc(Cl)ccc2Cl)cc1-c1ccccc1O` was > 50 µM (inactive); that for `Nc1cc(N)nc(SCC(=O)Nc2nonc2N)n1` was > 50 µM (inactive); that for `CCC(C)NCCNc1cc(OC)cc2cccnc12` (stereo not given) was 3.12 µM.
As to `Oc1ccc(-c2nc(-c3ccc(O)c(O)c3)cs2)cc1`, the IC50 was 0.74 µM.
Regarding `O=[N+]([O-])c1cccc(S(=O)(=O)Nc2ccc(O)c(-c3ccccc3O)c2)c1`, the IC50 was > 50 µM (inactive).
Consider `CC(=O)Oc1cc2c(C(=O)NCCCN3CCOCC3)c(C)oc2c2ccccc12`, for which the IC50 is 4.65 µM.
As to `Cc1ccc2[nH]c3c(c2c1)CN(C(=O)CN1CCN(c2ccccc2)CC1)CC3`, the IC50 is > 50 µM (inactive).
The value for `O=C(Nc1nc(-c2ccc3c(c2)OCO3)cs1)C1COc2ccccc2O1` (stereo not given) was > 50 µM (inactive); that for `CCOc1ccc2ccccc2c1-c1cc(NS(=O)(=O)c2cc(Cl)ccc2Cl)ccc1NC(=O)OC(C)(C)C` was > 50 µM (inactive).
Next, `Cc1noc(C(=O)Nc2ccc3c(c2)OCO3)c1Cl`: 22.5 µM; `O=C(c1cc(-c2ccncc2)nc2ccc(Br)cc12)N1CCN(c2ccccn2)CC1`: > 50 µM (inactive).
Next, `Cn1c(=O)c2c(nc(NCc3ccc4c(c3)OCO4)n2C)n(C)c1=O`: > 50 µM (inactive).
Regarding `O=C1C(c2cnc3c(n2)CCC=C3)=C(O)c2ccccc21`, the IC50 was > 50 µM (inactive).
Next, `O=C(NCCN1CCOCC1)NC1(C(F)(F)F)Oc2ccc(Cl)cc2O1` (stereo not given): > 50 µM (inactive); `O=C(Cn1cnc2ccccc2c1=O)NCCC(=O)Nc1ccc2c(c1)OCCO2`: > 50 µM (inactive); `COc1ccc(C2=NO[C@@H]3C(=O)N(c4ccc5c(c4)OCCO5)C(=O)[C@H]23)cc1OC`: 29.7 µM.
The value for `O=S(=O)(c1cccc(-c2nnco2)c1)N1CCCC1` was > 50 µM (inactive); that for `COc1ccccc1-c1nnc2n1N=C(c1ccc(O)c(O)c1)CS2` was 10.7 µM; that for `COc1ccc2c3c(cccc13)NN=C2C` was 8.36 µM.
Turning to `COc1ccc2c(c1-c1cc(NS(=O)(=O)c3ccc(C)cc3)ccc1N)OCO2`, the IC50 is > 50 µM (inactive).
The value for `COc1cccc2c1C(=O)c1c(O)c3c(c(O)c1C2=O)C[C@@](O)(C(=O)CO)C[C@@H]3O[C@H]1C[C@H](N)[C@H](O)[C@H](C)O1` was 0.266 µM; that for `CCOC(=O)NC1(Nc2ccc(Cl)cn2)Oc2ccccc2O1` was > 50 µM (inactive); that for `COc1cc(NCCCC(C)=NO)c2nccc(OCc3ccccc3)c2c1` was > 50 µM (inactive).
Next, `COc1ccc2c(c1-c1cc(NS(=O)(=O)c3cc(Cl)ccc3Cl)ccc1N)OCO2`: > 50 µM (inactive); `C=CCNC(=O)CN(c1cccc(Br)c1)S(C)(=O)=O`: > 50 µM (inactive); `COc1ccc(C2=NO[C@@H]3C(=O)N(c4c(C)cccc4C)C(=O)[C@H]23)cc1OC`: 25.4 µM.
Next, `COc1cc(NCCCC(C)N)c2nccc(Cl)c2c1` (stereo not given): 12.5 µM; `COc1ccc(NCc2cc3cc(OC)ccc3[nH]c2=O)cc1`: > 50 µM (inactive).
As for `Nc1cc(Cl)cc2cccnc12`, the IC50 was > 50 µM (inactive).
Next, `CC(C)NCCCC(C)Nc1cc(O)cc2cccnc12` (stereo not given): 1.56 µM; `CCOC(=O)C1=C(C)OC(N)=C(C(=O)OCC)C1c1cccnc1` (stereo not given): > 50 µM (inactive); `CCOc1ccc(S(=O)(=O)Nc2ccc3c(c2)OCO3)c2cccnc12`: 16 µM.
The value for `Cc1c(-c2nn(C)c(=O)c3ccccc23)oc2ccc(F)cc2c1=O` was 2.46 µM.
With `Cn1c(=O)c2c(nc(CN3CCc4ccccc4C3)n2CCCO)n(C)c1=O`, the IC50 was > 50 µM (inactive).
In the case of `CCOC(=O)c1oc2c(O)c(O)ccc2c(=O)c1-c1nncn1-c1ccccc1`, the 50% inhibitory concentration (IC50) was 24.1 µM.
The value for `CCCCCC(=O)N1CC2(C)CN(C(=O)CCCCC)CC(C)(C1)C2=O` was > 50 µM (inactive).
Next, `Oc1ccc(-c2onc(C(F)(F)F)c2-c2cscn2)c(O)c1`: 18 µM; `Nc1ccc2ncccc2c1N`: 3.38 µM.
Consider `Nc1cccc(S(=O)(=O)Nc2ccc(N)c(-c3ccccc3O)c2)c1`, for which the IC50 is > 50 µM (inactive).
Next, `COC(=O)c1ccc2c(c1)SC1=C(CCCC1=O)N2`: 10.9 µM.
As for `Nc1cc(N)nc(SCC(=O)Nc2nncs2)n1`, the IC50 was > 50 µM (inactive).
Next, `Cc1ccc(OC(=O)c2ccc(N)cc2O)cc1`: > 50 µM (inactive); `Cc1ccccc1OCC(O)Cn1c(NCCN(C)C)nc2c1c(=O)n(C)c(=O)n2C` (stereo not given): > 50 µM (inactive); `O=C1c2ccccc2C(=O)N1Cc1ccc2c(c1)OCO2`: > 50 µM (inactive).
Next, `OCCCc1nc2n(n1)C(c1ccccc1)C=C(c1ccccc1)N2` (stereo not given): > 50 µM (inactive).
The value for `Nc1cc(N)c(OCC(F)(F)F)cc1OCC(F)(F)F` was “inactive”.
With `O=C1C(c2cnc3ccccc3n2)=C(O)c2ccccc21`, the IC50 is 20 µM.
Next, `O=C(O)c1ccc2c3c(ncnc13)-c1ccccc1C2=O`: 5.22 µM; `CCc1cc(C(=O)Cc2cscn2)c(O)cc1O`: > 50 µM (inactive); `O=C(c1ccc2ccccc2c1)N1CCN(c2ccc(O)cc2)CC1`: > 50 µM (inactive).
Take `COC(=O)C1=C(C)N(c2cccc3ccccc23)C(=O)C1`: the IC50 was > 50 µM (inactive).
Next, `O=C1C2C3C=CC(C3)C2C(=O)N1CNc1ccc(O)cc1` (stereo not given): 14.7 µM.
Next, `COc1ccc(-c2nc(CS(=O)CC(=O)NCc3ccccn3)c(C)o2)cc1` (stereo not given): 19.3 µM.
The value for `O=C(CSc1n[nH]c(-c2ccccc2)n1)c1ccc(O)c(O)c1` was 7.72 µM; that for `COc1cc(NCC(O)CN(CC(C)C)CC(C)C)c2nc(C)ccc2c1` (stereo not given) was > 50 µM (inactive); that for `COc1ccc(OC)c(-n2c(C)nc3cc(C(=O)O)ccc32)c1` was 29.8 µM.
Consider `CC(Cc1ccc(O)c(O)c1)C(C)Cc1ccc(O)c(O)c1` (stereo not given), for which the IC50 is 2.62 µM.
The value for `N#Cc1c(N2CCCC2)nc(N)c2c(N)nc(N3CCCC3)cc12` was 2.41 µM.
Next, `Nc1ccc(NS(=O)(=O)c2ccccc2)c(O)c1`: > 50 µM (inactive); `CCn1c(CSc2nnc3ccccn23)nc2cc(C(=O)O)ccc21`: 1.11 µM.
Next, `CC(=O)Nc1cc(OC(C)=O)c2nonc2c1OC(C)=O`: 5.7 µM; `CCN(CC)CC(O)c1ccnc2c(O)cccc12` (stereo not given): > 50 µM (inactive).
As for `COc1ccc(NS(=O)(=O)c2ccccc2)c(OC)c1`, the IC50 was > 50 µM (inactive).
In the case of `CCCCn1c(NC(=O)c2ccco2)c(C(=O)OCC)c2nc3ccccc3nc21`, the IC50 is > 50 µM (inactive).
`COc1cc(NCCN(CC(C)C)CC(C)C)c2ncccc2c1`: the IC50 entry was “inactive”.
In the case of `Nc1ccc2[nH]ccc2c1`, the IC50 was > 50 µM (inactive).
The value for `O=C(OC1CCc2ccccc2C1=O)c1ccccc1O` (stereo not given) was > 50 µM (inactive); that for `Oc1c(Cl)cc(Cl)c2cccnc12` was > 50 µM (inactive).
`O=c1oc2c3c4c(cc2s1)CCCN4CCC3`: the IC50 was > 50 µM (inactive).
Next, `CC(=O)c1cccc(NC(=O)CSc2nnc(-c3ccc(S(=O)(=O)N4CCCC4)cc3)o2)c1`: > 50 µM (inactive); `N#Cc1cc(S(=O)(=O)Nc2cc(O)cc3cccnc23)ccc1F`: “inactive”.
Next, `CCOc1ccc(S(=O)(=O)Nc2cc(Sc3ncn[nH]3)c3oc(=O)sc3c2)cc1`: “inactive”; `CC(CCN(C)C)Nc1cc(O)cc2cccnc12` (stereo not given): 1.56 µM; `O=C1NCCCC2c3cc(O)c4ccccc4c3OC12N1CCCCC1` (stereo not given): 5.79 µM.
The value for `COc1ccc(S(=O)(=O)N(C)CC(=O)N2CCC(C(N)=O)CC2)cc1Cl` was > 50 µM (inactive); that for `Nc1ccc(NS(=O)(=O)c2cccc([N+](=O)[O-])c2)cc1-c1ccccc1O` was > 50 µM (inactive); that for `OCCN(CCO)c1nc(N2CCCCC2)c2nc(N(CCO)CCO)nc(N3CCCCC3)c2n1` was 21.1 µM.
On to `CC(C)(C)OC(=O)Nc1cccc(NS(=O)(=O)c2cc(Cl)ccc2Cl)c1-c1ccccc1O`, for which the IC50 is > 50 µM (inactive).
Turning to `COC(=O)c1cc(=O)[nH]c2ccc(C)cc12`, the IC50 was > 50 µM (inactive).
Next, `O=[N+]([O-])c1cc(O)cc2cccnc12`: 1.56 µM; `CCn1nc(-c2ccccc2)nc2c(=O)n(C)c(=O)nc1-2`: 0.136 µM.
On to `CC1(C)CC(=O)c2c(O)cc(O)cc2O1`, for which the IC50 was > 50 µM (inactive).
The value for `Nc1cc(N)c2cccnc2c1O` was 3.13 µM.
Next, `Nc1ccc(CSc2ccc(Cl)cc2)c(O)c1`: > 50 µM (inactive); `CCn1cc(C(=O)NCc2ccccn2)c(=O)c2cc(S(=O)(=O)N3CCCCC3)ccc21`: 17.4 µM.
`CN(C)[C@@H]1C(=O)C(C(N)=O)=C(O)[C@@]2(O)C(=O)C3=C(O)c4c(O)cccc4[C@@](C)(O)[C@H]3C[C@@H]12`: the half-maximal inhibitory concentration (IC50) was 22.4 µM.
The value for `O=c1cc(NCCCO)c2ccccc2o1` was > 50 µM (inactive); that for `Cc1cc(SCC(N)=O)nc(SCC(=O)c2ccccc2)n1` was > 50 µM (inactive); that for `O=C(O)/C=C/c1ccc(O)c(O)c1` was > 50 µM (inactive).
As to `COc1cc(NC(=O)CCCCCCN)c2ncccc2c1`, the IC50 was > 50 µM (inactive).
Next, `C[C@H]1CCC[C@H](O)CCCCCc2cc(O)cc(O)c2C(=O)O1`: 2.65 µM; `Cc1ccccc1Nc1cc2ccccc2c(=O)[nH]1`: “inactive”.
Next, `COc1cccc2c1C(=O)c1c(O)c3c(c(O)c1C2=O)C[C@@](O)(C(C)=O)C[C@@H]3O[C@H]1C[C@H](N)[C@H](O)[C@H](C)O1`: 0.174 µM; `COc1cccc(C(=O)NCC(=O)n2nc(C)cc2C)c1`: > 50 µM (inactive).
